From PMC12028158, “Synthesis and In Vitro Evaluation of the Anticancer Effect of Novel Phosphonium Vindoline Derivatives” (International Journal of Molecular Sciences, 2025)

Legend:
Assay type in all cases: cell-based
[1] = tested on: TK-10; assay: NCI60 one-dose screen; conditions: Homo sapiens, TK-10, read-out: Growth percent
[2] = tested on: A498; assay: NCI60 five-dose screen; conditions: Homo sapiens, A498
[3] = tested on: SNB-19; assay: NCI60 five-dose screen; conditions: Homo sapiens, SNB-19
[4] = tested on: HCC-2998; assay: NCI60 one-dose screen; conditions: Homo sapiens, HCC 2998, read-out: Growth percent
[5] = tested on: Colon Cancer panel; assay: NCI60 five-dose screen, panel mean; conditions: Homo sapiens, read-out: Mean GI50
[6] = tested on: SF-295; assay: NCI60 five-dose screen; conditions: Homo sapiens, SF-295
[7] = tested on: TK-10; assay: NCI60 five-dose screen; conditions: Homo sapiens, TK-10
[8] = tested on: OVCAR-8; assay: NCI60 five-dose screen; conditions: Homo sapiens, OVCAR-8
[9] = tested on: NCI/ADR-RES; assay: NCI60 one-dose screen; conditions: Homo sapiens, read-out: Growth percent
[10] = tested on: SN12C; assay: NCI60 one-dose screen; conditions: Homo sapiens, read-out: Growth percent
[11] = tested on: 786-0; assay: NCI60 one-dose screen; conditions: Homo sapiens, 786-0, read-out: Growth percent
[12] = tested on: M14; assay: NCI60 five-dose screen; conditions: Homo sapiens, M14
[13] = tested on: CCRF-CEM; assay: NCI60 five-dose screen; conditions: Homo sapiens
[14] = tested on: T-47D; assay: NCI60 five-dose screen; conditions: Homo sapiens, T47D
[15] = tested on: U251; assay: NCI60 five-dose screen; conditions: Homo sapiens, U-251
[16] = tested on: IGROV1; assay: NCI60 five-dose screen; conditions: Homo sapiens, IGROV-1
[17] = tested on: MDA-MB-435; assay: NCI60 one-dose screen; conditions: Homo sapiens, MDA-MB-435, read-out: Growth percent
[18] = tested on: A549/ATCC; assay: NCI60 five-dose screen; conditions: Homo sapiens, A549
[19] = tested on: A498; assay: NCI60 one-dose screen; conditions: Homo sapiens, A498, read-out: Growth percent
[20] = tested on: U251; assay: NCI60 one-dose screen; conditions: Homo sapiens, U-251, read-out: Growth percent
[21] = tested on: OVCAR-5; assay: NCI60 five-dose screen; conditions: Homo sapiens, OVCAR-5
[22] = tested on: UACC-62; assay: NCI60 five-dose screen; conditions: Homo sapiens, UACC-62
[23] = tested on: NCI-H522; assay: NCI60 five-dose screen; conditions: Homo sapiens, NCI-H522
[24] = tested on: NCI-H226; assay: NCI60 five-dose screen; conditions: Homo sapiens, NCI-H226
[25] = tested on: SK-MEL-5; assay: NCI60 one-dose screen; conditions: Homo sapiens, SK-MEL-5, read-out: Growth percent
[26] = tested on: SF-268; assay: NCI60 one-dose screen; conditions: Homo sapiens, SF-268, read-out: Growth percent
[27] = tested on: M14; assay: NCI60 one-dose screen; conditions: Homo sapiens, M14, read-out: Growth percent
[28] = tested on: MOLT-4; assay: NCI60 five-dose screen; conditions: Homo sapiens, MOLT-4
[29] = tested on: HCT-116; assay: NCI60 five-dose screen; conditions: Homo sapiens, HCT-116
[30] = tested on: NCI-H522; assay: NCI60 one-dose screen; conditions: Homo sapiens, NCI-H522, read-out: Growth percent
[31] = tested on: MDA-MB-468; assay: NCI60 five-dose screen; conditions: Homo sapiens, MDA-MB-468
[32] = tested on: ACHN; assay: NCI60 five-dose screen; conditions: Homo sapiens
[33] = tested on: EKVX; assay: NCI60 five-dose screen; conditions: Homo sapiens
[34] = tested on: ACHN; assay: NCI60 one-dose screen; conditions: Homo sapiens, read-out: Growth percent
[35] = tested on: HT29; assay: NCI60 five-dose screen; conditions: Homo sapiens, HT-29
[36] = tested on: MDA-MB-231/ATCC; assay: NCI60 one-dose screen; conditions: Homo sapiens, MDA-MB-231, read-out: Growth percent
[37] = tested on: SF-295; assay: NCI60 one-dose screen; conditions: Homo sapiens, SF-295, read-out: Growth percent
[38] = tested on: SK-OV-3; assay: NCI60 one-dose screen; conditions: Homo sapiens, SK-OV-3, read-out: Growth percent
[39] = tested on: MDA-MB-468; assay: NCI60 one-dose screen; conditions: Homo sapiens, MDA-MB-468, read-out: Growth percent
[40] = tested on: IGROV1; assay: NCI60 one-dose screen; conditions: Homo sapiens, IGROV-1, read-out: Growth percent
[41] = tested on: NCI-H460; assay: NCI60 one-dose screen; conditions: Homo sapiens, NCI-H460, read-out: Growth percent
[42] = tested on: HS 578T; assay: NCI60 one-dose screen; conditions: Homo sapiens, Hs-578T, read-out: Growth percent
[43] = tested on: HOP-92; assay: NCI60 five-dose screen; conditions: Homo sapiens, HOP-92
[44] = tested on: SR; assay: NCI60 one-dose screen; conditions: Homo sapiens, read-out: Growth percent
[45] = tested on: Prostate Cancer panel; assay: NCI60 five-dose screen, panel mean; conditions: Homo sapiens, read-out: Mean GI50
[46] = tested on: MCF7; assay: NCI60 one-dose screen; conditions: Homo sapiens, MCF7, read-out: Growth percent
[47] = tested on: DU-145; assay: NCI60 one-dose screen; conditions: Homo sapiens, DU-145, read-out: Growth percent

Question: With `CC[C@]12C=CCN3CC[C@@]4(c5ccc(OC)cc5N(C)[C@H]4[C@@](O)(C(=O)OC)[C@@H]1OC(=O)CCC[P+](c1ccc(F)cc1)(c1ccc(F)cc1)c1ccc(F)cc1)[C@@H]32` [9c] as the compound, how does the activity at 10 µM [1] read?
Answer: 63.9%

Question: And the GI50 [2]?
Answer: > 48.5 µM

Question: And the GI50 [3]?
Answer: 11.4 µM

Question: And the activity at 10 µM [4]?
Answer: 22.4%

Question: And the GI50 [5]?
Answer: 16.8 µM

Question: What about the GI50 [6] of the same compound?
Answer: > 48.5 µM

Question: And the GI50 [7]?
Answer: 22.2 µM

Question: And the GI50 [8]?
Answer: 18.4 µM

Question: What about the activity at 10 µM [9] of the same compound?
Answer: 104%

Question: What about the activity at 10 µM [10] of the same compound?
Answer: 16.6%

Question: What about the activity at 10 µM [11] of the same compound?
Answer: 80.9%

Question: What about the GI50 [12] of the same compound?
Answer: 9.1 µM

Question: What about the GI50 [13] of the same compound?
Answer: 12.7 µM

Question: What about the GI50 [14] of the same compound?
Answer: 10.5 µM

Question: And the GI50 [15]?
Answer: 9.36 µM

Question: And the GI50 [16]?
Answer: 7.09 µM

Question: What about the activity at 10 µM [17] of the same compound?
Answer: 6.69%

Question: What about the GI50 [18] of the same compound?
Answer: 21.5 µM

Question: What about the activity at 10 µM [19] of the same compound?
Answer: 101%

Question: What about the activity at 10 µM [20] of the same compound?
Answer: 18.5%

Question: And the GI50 [21]?
Answer: 20.8 µM

Question: What about the GI50 [22] of the same compound?
Answer: 6.05 µM

Question: What about the GI50 [23] of the same compound?
Answer: 3.88 µM

Question: What about the GI50 [24] of the same compound?
Answer: 24.2 µM

Question: And the activity at 10 µM [25]?
Answer: -38.3%

Question: And the activity at 10 µM [26]?
Answer: 42.3%

Question: And the activity at 10 µM [27]?
Answer: 21.4%

Question: What about the GI50 [28] of the same compound?
Answer: 9.69 µM

Question: What about the GI50 [29] of the same compound?
Answer: 14.8 µM

Question: What about the activity at 10 µM [30] of the same compound?
Answer: -17.7%

Question: And the GI50 [31]?
Answer: 1.5 µM

Question: What about the GI50 [32] of the same compound?
Answer: > 48.5 µM

Question: And the GI50 [33]?
Answer: 19.4 µM

Question: What about the activity at 10 µM [34] of the same compound?
Answer: 101%

Question: And the GI50 [35]?
Answer: 12.5 µM

Question: And the activity at 10 µM [36]?
Answer: 22%

Question: What about the activity at 10 µM [37] of the same compound?
Answer: 85%

Question: What about the activity at 10 µM [38] of the same compound?
Answer: 54.7%

Question: And the activity at 10 µM [39]?
Answer: -74.6%

Question: And the activity at 10 µM [40]?
Answer: -15%

Question: And the activity at 10 µM [41]?
Answer: 30.9%

Question: And the activity at 10 µM [42]?
Answer: 19.1%

Question: And the GI50 [43]?
Answer: 5.44 µM

Question: And the activity at 10 µM [44]?
Answer: 42.6%

Question: What about the GI50 [45] of the same compound?
Answer: 18.2 µM

Question: What about the activity at 10 µM [46] of the same compound?
Answer: 7.7%

Question: And the activity at 10 µM [47]?
Answer: 47.7%

Question: `CC[C@]12C=CCN3CC[C@@]4(c5ccc(OC)cc5N(C)[C@H]4[C@@](O)(C(=O)OC)[C@@H]1OC(=O)CCC[P+](C1CCCCC1)(C1CCCCC1)C1CCCCC1)[C@@H]32` [9d] was tested. Which activity at 10 µM [1] did it give?
Answer: -48.6%

Question: What about the GI50 [2] of the same compound?
Answer: 12.4 µM

Question: And the GI50 [3]?
Answer: 2.22 µM

Question: And the activity at 10 µM [4]?
Answer: -92.6%

Question: What about the GI50 [5] of the same compound?
Answer: 3.82 µM

Question: And the GI50 [6]?
Answer: 4.41 µM

Question: What about the GI50 [7] of the same compound?
Answer: 2.73 µM

Question: What about the GI50 [8] of the same compound?
Answer: 2.97 µM

Question: And the activity at 10 µM [9]?
Answer: 100%

Question: And the activity at 10 µM [10]?
Answer: -40.5%

Question: What about the activity at 10 µM [11] of the same compound?
Answer: -16.2%

Question: And the GI50 [12]?
Answer: 1.92 µM

Question: And the GI50 [13]?
Answer: 1.69 µM

Question: What about the GI50 [14] of the same compound?
Answer: 1.32 µM

Question: What about the GI50 [15] of the same compound?
Answer: 0.746 µM

Question: And the GI50 [16]?
Answer: 1.39 µM

Question: What about the activity at 10 µM [17] of the same compound?
Answer: -80.1%

Question: And the GI50 [18]?
Answer: 3.46 µM

Question: What about the activity at 10 µM [19] of the same compound?
Answer: 21.8%

Question: What about the activity at 10 µM [20] of the same compound?
Answer: -82.5%

Question: And the GI50 [21]?
Answer: 3.19 µM

Question: What about the GI50 [22] of the same compound?
Answer: 1.41 µM

Question: And the GI50 [23]?
Answer: 6.88 µM

Question: What about the GI50 [24] of the same compound?
Answer: 4.06 µM

Question: And the activity at 10 µM [25]?
Answer: -98.4%

Question: What about the activity at 10 µM [26] of the same compound?
Answer: -54.1%

Question: What about the activity at 10 µM [27] of the same compound?
Answer: -78%

Question: What about the GI50 [28] of the same compound?
Answer: 2.16 µM

Question: What about the GI50 [29] of the same compound?
Answer: 2.85 µM

Question: What about the activity at 10 µM [30] of the same compound?
Answer: -82.2%

Question: And the GI50 [31]?
Answer: 0.313 µM

Question: What about the GI50 [32] of the same compound?
Answer: 15.2 µM

Question: And the GI50 [33]?
Answer: 3.09 µM

Question: And the activity at 10 µM [34]?
Answer: 32%

Question: And the GI50 [35]?
Answer: 1.88 µM

Question: What about the activity at 10 µM [36] of the same compound?
Answer: -90.8%

Question: And the activity at 10 µM [37]?
Answer: -13.6%

Question: And the activity at 10 µM [38]?
Answer: -7.72%

Question: And the activity at 10 µM [39]?
Answer: -79.6%

Question: What about the activity at 10 µM [40] of the same compound?
Answer: -86%

Question: And the activity at 10 µM [41]?
Answer: 4.64%

Question: What about the activity at 10 µM [42] of the same compound?
Answer: -33%

Question: And the GI50 [43]?
Answer: 1.01 µM

Question: What about the activity at 10 µM [44] of the same compound?
Answer: 29.1%

Question: What about the GI50 [45] of the same compound?
Answer: 2.73 µM

Question: What about the activity at 10 µM [46] of the same compound?
Answer: -72.2%

Question: What about the activity at 10 µM [47] of the same compound?
Answer: 15.7%
